Measurements as given in US20240148745A1, “COMPOUNDS FOR USE IN PROGRESSIVE MULTIPLE SCLEROSIS” (FONDAZIONE CENTRO SAN RAFFAELE, priority 2021, published 2024).

Experiments:
[1] = system: LPC-induced demyelinated lesions of the mouse spinal cord; assay: LPC model of focal demyelination of the mouse spinal cord; format: in vivo
[2] = system: LPC lesions of MBP-deficient shiverer spinal cords transplanted with human iPSC-derived oligodendrocytes; assay: Remyelination in LPC lesions of shiverer spinal cords grafted with hiOLs; format: in vivo, mouse; settings: gavage during 8 or 10 wkpg
Text: FIG. 48. In vivo results of Bavisant treatment on remyelination in LPC lesions of MBP-deficient shiverer spinal cords transplanted with human iPSC-derived oligodendrocytes. […] Exogenous myelin is detected by MBP and endogenous myelin by MOG.

[3] = system: primary human A2B5+ pre-oligodendrocytes; assay: Ensheathment by primary human A2B5+ oligodendrocyte lineage cells; format: cell-based; settings: for percentage of ensheathed O4+ cells: human adult A2B5+ cells, 14 days
Procedure: FIG. 49. […] The experiments were conducted using primary human oligodendrocyte lineage cells obtained from surgically derived tissue specimens. Specimens were derived either from adults or pediatric age groups. […] Percentages of ensheathed O4+ cells were calculated by the total ensheathed O4+ cells out of total O4+ cells. HA-human adult, HP-human pediatric. *p<0.05.

[4] = system: mouse cortical and striatal neurons; assay: Morphological integrity evaluation, NMDA 20 μM; format: cell-based; settings: 1 μM, 24 h pre-treatment, NMDA 20 μM 24 h
Procedure: Morphological integrity evaluation. Mouse cortical and striatal neurons (14 DIV) cultured in MW96 plates were exposed to 1 uM to 60 uM concentrations of NMDA and relationship between the NMDA dose and fiber length was evaluated. […] Each of the compound was tested in quadruplicate. The fiber length was evaluated by MAP2 staining (please see the method described earlier).
42 compounds were screened to evaluate the morphological integrity of cortical and striatal neurons upon chronic (24 h) NMDA exposure at concentration of 20 μM with compounds pre-treatment (24 h) in preventive regimen (FIG. 17).

[5] = system: iPSC-derived neurons (DIV45); settings: human
Procedure: This protocol was modified from Yuchen Qi et al.^32 First, neural progenitors (NPCs) were generated from hiPSCs by dual-SMAD inhibition. Shortly, at day 0 iPSC colonies (confluent at 70-80%) were washed with PBS Dulbecco's w/o Calcium w/o Magnesium (Euroclone) and hiPSCs' maintenance medium (mTeSR™, StemCell Technologies) was replaced with neural induction medium composed by DMEM/F12 plus N2 medium (1×), B27 without RA supplement (0.5×) (Life Technology), added with SB431542 (10 μM) and LDN (500 nM). This medium was kept until day 4 (“induction”). At day 4, cells were splitted (1:3) with the same induction medium using Accutase®/Accumax™ (StemCell Technologies) dissociated solution. Entire medium was replaced daily up to days 14-16 until rosette formation was observed (“patterning”). At days 14-16, cells were detached by Accutase®/Accumax™ and re-plated on polyornitine/laminin/fibronectin coated MW96 or MW24 plates for terminal differentiation in Neurobasal medium supplemented with B27 (0.5×), BDNF (20 ng/ml), dbcAMP (500 μM), ascorbic acid (200 μM), PD0325901 (1 μM), SU5402 (5 μM), CHIR (3 μM), human recombinant insulin (5 μg/ml), supplemented with RI (Rock inhibitor) (1:3000) to reduce dissociation induced apoptosis. The half of differentiation medium was changed every 3-4 days, supplemented with 1 μg/ml laminin and DAPT (1-2 μM) until terminal maturation of neuronal population (MAP2+ cells). Cultures were characterized by immunocytochemistry and qRT-PCR and neuroprotective experiments were performed on days 30-40 of differentiation.
Evaluation of cytotoxicity of 160 selected compounds on iPSC-derived neurons (DIV45).

[6] = system: human embryonic and fetal neural precursors (hufNPCs); assay: hufNPC differentiation towards TUJ1+ neurons; format: cell-based; settings: 1 μM, 7 days
Procedure: First, fresh human fetal brain tissues were mechanically dissociated, followed by enzymatic dissociation with Trypsin (LONZA (BE17-161E) 1:5) in growth medium for 5-10 min at 37° C., 5% O2 e 5% CO2, then washed with 10% Australian FBS in fresh medium and centrifuged 15 min at 200 g. Cells were plated in T25 flask in Neural stem cell growth medium (NeuroCult-XF Basal Medium (cat. #05760)+ NeuroCult-XF Proliferation supplement (cat. #05763) (for Human Neural Stem Cells) […] TECHNOLOGIES+human recombinant carrier-free EGF (cat. #1325 9510 00) and bFGF (cat. #1370 9505 00) (Provitro) at final concentration of 20 ng/ml) at 37° C., 5% O2 e 5% CO2. After 15-25 days, enzymatic (Accumax®, StarFish cat. #GMP-102470) dissociation of neurospheres or subconfluent adherent cells was performed and cells were re-plated at density (25000 cells/cm2) in NGM. […] Pro-differentiating properties of 160 compounds were evaluated by co-incubating freshly seeded in 96 well plate hufNPCs with 1 μM compounds for 7 days (each compound was tested in triplicate). […] After one week, cells were fixed and analyzed via immunocytochemistry. […] 15 images per well were acquired and analyzed by CellProfiler. Number of TUJ1+/DAPI cells was counted and compared to DMSO.
160 selected non-toxic compounds pro-differentiating properties were evaluated on human embryonic and fetal neural precursors (hufNPCs). […]

[7] = 30 mg/kg daily oral gavage, 14 dpi

Row | SMILES | toxicity on dissociated cultures [3] | percentage of ensheathed O4+ cells [3] | morphological integrity (neurite length) of cortical and striatal neurons [4] | viability compared to DMSO [5] | also measured
1 | O=C(c1ccc(CN2CCOCC2)cc1)N1CCN(C2CC2)CC1 [Bavisant] | No evidence of toxicity | promote ensheathment of adult brain derived A2B5+ cells |  |  | density of Olig2+CC1+ differentiated oligodendrocytes in LPC lesions ([1]; 30 mg/kg daily oral gavage, 5 to 14 dpi, readout 14 dpi): significantly increased the density of mature oligodendrocytes; % of remyelinated axons in the lesion [1, 7]: significantly increased the number of remyelinated axons; axonal density in LPC lesions [1, 7]: not changes; G-ratio ([1]; control vs treated, p<0.0001): enhances remyelination in vivo; remyelination potential of grafted hiOLs (MBP) [2]: has the tendency to promote the remyelination potential of hiOLs
2 | CC(=O)N1CCN([C@H]2CCN(C(=O)N(C)[C@H](C)c3cc(C(F)(F)F)cc(C(F)(F)F)c3)[C@@H](c3ccc(F)cc3C)C2)CC1 [Casopitant] | No evidence of toxicity | promote ensheathment of adult brain derived A2B5+ cells | selected for confirmation | 65-80% | 
3 | NCCCC[C@H](NC(=O)[C@@H](Cc1cc(Br)c(O)c(Br)c1)NC(=O)N1CCC(N2Cc3ccccc3NC2=O)CC1)C(=O)N1CCN(c2ccncc2)CC1 [Olcegepant] |  |  | selected for confirmation |  | 
4 | O=C(NOC[C@H](O)CO)c1ccc(F)c(F)c1Nc1ccc(I)cc1F [PD-0325901] |  |  |  | 65-80% | 
5 | CC1(C)CCC(C)(C)c2cc(NC(=O)c3ccc(C(=O)O)cc3)ccc21 [Tamibarotene] |  |  |  |  | neuronal differentiation (TUJ1+/DAPI cells vs DMSO) [6]: significantly promoted neuronal differentiation compared to DMSO and heparin
